22 compounds from PMC9168620, “Genetic validation of Aspergillus fumigatus phosphoglucomutase as a viable therapeutic target in invasive aspergillosis” (The Journal of Biological Chemistry, 2022) can be followed below.

The structures appear in SMILES notation. “And” between values parts separate entries of the source, which are not always exact repeats. Equal entries are not always repeated. Where two headings read alike, the source gives them in different places. Some results are limits rather than exact numbers.

For one assay, the target named is T1, HsPGM (Homo sapiens, UniProt P36871).
T1 construct: Full length HsPGM; 6His-GST (N, cleaved yes); made in house; host or cells: E. coli BL21 (DE3) pLysS (same protocol as AfPGM)
T1 sequence (P36871 1-562): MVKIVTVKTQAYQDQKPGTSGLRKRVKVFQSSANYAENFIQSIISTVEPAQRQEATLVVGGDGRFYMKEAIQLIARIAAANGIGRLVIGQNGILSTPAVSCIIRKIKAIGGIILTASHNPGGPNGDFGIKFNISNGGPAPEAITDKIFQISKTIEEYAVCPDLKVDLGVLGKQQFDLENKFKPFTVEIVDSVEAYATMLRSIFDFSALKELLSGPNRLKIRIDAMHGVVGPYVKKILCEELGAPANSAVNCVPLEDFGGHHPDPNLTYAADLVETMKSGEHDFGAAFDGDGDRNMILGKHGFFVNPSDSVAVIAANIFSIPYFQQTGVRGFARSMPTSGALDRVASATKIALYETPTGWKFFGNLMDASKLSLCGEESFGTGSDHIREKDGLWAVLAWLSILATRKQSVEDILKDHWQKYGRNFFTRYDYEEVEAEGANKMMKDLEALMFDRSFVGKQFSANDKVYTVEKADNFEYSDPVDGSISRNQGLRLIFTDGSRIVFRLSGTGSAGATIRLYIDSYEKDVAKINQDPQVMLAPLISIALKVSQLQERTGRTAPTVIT
The assay is described as follows: G6PDH coupled assay for PGM, HsPGM. Format: biochemical. The procedure: (§1) The reaction mixture contained MOPS–NaOH (pH 7.4; 50 mM), MgSO4 (1.5 mM), NADP^+ (1 mM), G6PDH (0.01 U) from L. mesenteroides, Glc-1P (500 μM), Glc-1,6-2P (50 μM), and enzyme (5 nM). The reaction was carried out at 25 °C for 6 min in a total volume of 100 μl. Formation of NADPH was detected in real-time (every 1.5 min), measuring fluorescence signal (excitation at 360 nm; emission at 460 nm). To measure the inhibitory activity, compounds with different concentrations (3% (v/v) DMSO) were added to the reaction system. IC50 values were calculated using the product (NADPH) concentration at 6 min with 500 μM Glc-1P.
(§2) Figure S11: Representative enzyme activity assays for PGMs. Error bars represent standard deviation of three determinations. Panel A and B show the time course of PGMs and PGM mutants in which sugar recognition glutamates are mutated to glutamine. […] Values in parentheses indicate the time at which DTT (1 mM) was added.

A further assay has as its target T2, AfPGMC353∗ (Aspergillus fumigatus, UniProt Q4WY53, C131S/C242S/C364S).
T2 construct: Full length AfPGM; 6His-GST (N, cleaved yes); made in house; host or cells: E. coli BL21 (DE3) pLysS
The assay can be described thus: G6PDH coupled assay for PGM, AfPGMC353∗ variant (C353 the sole cysteine). To be noted: no preincubation; for IC50: IC50 AfPGMC353, AfPGMC353∗ (all other cysteines mutated to serine) 5 nM. Type of assay: biochemical. The protocol: as §1

A further assay addresses T3, AfPGM (Aspergillus fumigatus, UniProt Q4WY53).
T3 construct: Full length AfPGM; 6His-GST (N, cleaved yes); made in house; host or cells: E. coli BL21 (DE3) pLysS
The assay can be described thus: biochemical. To be noted: for IC50 / IC50 AfPGM: WT AfPGM 5 nM, no preincubation, 500 μM Glc-1P. The protocol: as §1, §2

[1] abbreviates: HsPGM 5 nM, no preincubation, > values: highest concentration at which the compound can solubilize, read-out: IC50 HsPGM.

T3 sequence (Q4WY53 whole entry): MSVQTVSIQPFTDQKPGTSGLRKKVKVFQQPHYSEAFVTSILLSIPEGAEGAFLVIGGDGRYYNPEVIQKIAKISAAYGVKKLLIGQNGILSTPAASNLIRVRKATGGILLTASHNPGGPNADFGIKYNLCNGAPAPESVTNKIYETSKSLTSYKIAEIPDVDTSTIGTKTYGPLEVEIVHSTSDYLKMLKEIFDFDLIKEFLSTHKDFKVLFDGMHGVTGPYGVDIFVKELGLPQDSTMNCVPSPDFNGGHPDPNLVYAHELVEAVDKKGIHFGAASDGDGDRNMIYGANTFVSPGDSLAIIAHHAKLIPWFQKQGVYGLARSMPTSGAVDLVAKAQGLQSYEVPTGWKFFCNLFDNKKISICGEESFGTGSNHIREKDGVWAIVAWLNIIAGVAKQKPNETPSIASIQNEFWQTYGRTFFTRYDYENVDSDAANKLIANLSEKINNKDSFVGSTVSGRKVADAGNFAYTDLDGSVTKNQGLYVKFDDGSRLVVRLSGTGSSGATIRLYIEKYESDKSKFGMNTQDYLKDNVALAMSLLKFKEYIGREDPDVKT
T2 sequence (Q4WY53 whole entry C131S/C242S/C364S): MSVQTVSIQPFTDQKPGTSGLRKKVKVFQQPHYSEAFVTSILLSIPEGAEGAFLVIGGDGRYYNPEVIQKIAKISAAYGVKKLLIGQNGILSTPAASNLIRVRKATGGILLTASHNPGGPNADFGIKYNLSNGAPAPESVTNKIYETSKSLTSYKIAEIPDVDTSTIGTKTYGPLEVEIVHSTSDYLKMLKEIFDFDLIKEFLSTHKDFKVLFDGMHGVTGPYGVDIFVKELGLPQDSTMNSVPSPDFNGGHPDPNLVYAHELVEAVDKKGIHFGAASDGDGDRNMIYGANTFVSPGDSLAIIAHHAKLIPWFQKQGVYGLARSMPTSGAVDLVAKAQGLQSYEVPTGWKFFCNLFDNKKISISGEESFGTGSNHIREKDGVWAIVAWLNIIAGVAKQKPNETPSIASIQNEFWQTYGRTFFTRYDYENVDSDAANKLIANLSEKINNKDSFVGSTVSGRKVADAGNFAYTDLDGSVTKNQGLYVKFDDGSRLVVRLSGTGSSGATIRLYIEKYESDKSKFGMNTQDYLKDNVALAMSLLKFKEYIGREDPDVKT

In the case of `O=c1ccsn1-c1cc(Cl)cc(Cl)c1F` [ISFP5, 2-(3,5-dichloro-2-fluorophenyl)isothiazol-3(2H)-one], the IC50 at HsPGM (setting [1]) is 10 ± 1 µM; against AfPGMC353∗ it was 8 µM and 7.8 µM; on AfPGM, 1 µM and 0.8 µM.

`CC(C)(C)OC(=O)c1ccc(-n2sccc2=O)cc1` [ISFP8, tert-butyl 4-(3-oxoisothiazol-2(3H)-yl)benzoate]: the IC50 at HsPGM (setting [1]) was greater than 100 µM; at AfPGMC353∗ it was 6.7 µM; at AfPGM, 3.1 µM.

Turning to `O=C(OCc1ccccc1)c1ccc(-n2sccc2=O)cc1` [ISFP10, benzyl 4-(3-oxoisothiazol-2(3H)-yl)benzoate], the IC50 on HsPGM (setting [1]) is greater than 100 µM; at HsPGM (enzyme preincubated with compound for 15 min (Fig. S11E, F), read-out: IC50 HsPGM after preincubation) it was 6 µM; at AfPGMC353∗, 4 µM and 3.6 µM; at AfPGM, 2 µM. The “Shift in IC50 against AfPGM over preincubation” value at AfPGM (15-min preincubation (Fig. S11C, D)) was “no shift”.

In the case of `CC(C)OC(=O)c1ccc(-n2sccc2=O)cc1` [ISFP11, isopropyl 4-(3-oxoisothiazol-2(3H)-yl)benzoate], the IC50 at HsPGM (setting [1]) is greater than 100 µM; on AfPGMC353∗, 6 µM; against AfPGM, 3.1 µM.

As for `O=c1ccsn1-c1cccc([N+](=O)[O-])c1` [ISFP12, 2-(3-nitrophenyl)isothiazol-3(2H)-one], the IC50 at HsPGM (setting [1]) is greater than 100 µM; against AfPGMC353∗ it was 9.5 µM; against AfPGM, 5.7 µM.

Take `O=c1ccsn1-c1cccc(Cl)c1` [ISFP13, 2-(3-chlorophenyl)isothiazol-3(2H)-one]: the IC50 on HsPGM (setting [1]) was 100 µM; at AfPGMC353∗, 12.2 µM; on AfPGM, 5.8 µM.

In the case of `N#Cc1cccc(-n2sccc2=O)c1` [ISFP14, 3-(3-oxoisothiazol-2(3H)-yl)benzonitrile], the IC50 at HsPGM (setting [1]) is greater than 100 µM; on AfPGMC353∗, 9.5 µM; against AfPGM, 5.7 µM.

On to `CCOC(=O)c1cc2cc(-n3sccc3=O)ccc2o1` [ISFP15, ethyl 5-(3-oxoisothiazol-2(3H)-yl)benzofuran-2-carboxylate], for which the IC50 was greater than 100 µM at HsPGM (setting [1]), 15 µM at AfPGMC353∗ and 2.3 µM against AfPGM.

Regarding `O=c1ccsn1-c1ccccc1F` [ISFP16, 2-(2-fluorophenyl)isothiazol-3(2H)-one], the IC50 was greater than 400 µM on HsPGM (setting [1]), 23 µM at AfPGMC353∗ and 21 µM at AfPGM.

As to `O=c1ccsn1-c1cccc2ccccc12` [ISFP17, 2-(naphthalen-1-yl)isothiazol-3(2H)-one], the results for the IC50 on HsPGM (setting [1]), on AfPGMC353∗ and against AfPGM were greater than 100 µM, 16 µM and 3.3 µM, respectively.

For the compound `O=C(c1ccc(-n2sccc2=O)cc1)N1CCOCC1` [ISFP18, 2-(4-(morpholine-4-carbonyl)phenyl)isothiazol-3(2H)-one], the IC50 was greater than 100 µM at HsPGM (setting [1]), 23 µM on AfPGMC353∗ and 19 µM against AfPGM.

Consider `CC(=O)OCc1cccc(-n2sccc2=O)c1` [ISFP19, 3-(3-oxoisothiazol-2(3H)-yl)benzyl acetate], for which the IC50 at HsPGM (setting [1]) was greater than 400 µM; against AfPGMC353∗, 115 µM; at AfPGM, 36 µM.

As for `O=c1ccsn1-c1c(F)cccc1F` [ISFP20, 2-(2,6-difluorophenyl)isothiazol-3(2H)-one], the IC50 worked out at 86 µM at HsPGM (setting [1]), 14 µM against AfPGMC353∗ and 19 µM at AfPGM.

`O=c1ccsn1-c1cccc(CO)c1` [ISFP21, 2-(3-(hydroxymethyl)phenyl)isothiazol-3(2H)-one]: the IC50 on HsPGM (setting [1]) is greater than 400 µM; on AfPGMC353∗ it was 25 µM; on AfPGM it was 23 µM.

Regarding `O=c1ccsn1CCc1ccccc1` [ISFP22, 2-phenethylisothiazol-3(2H)-one], the “IC50 AfPGM” value against AfPGM is recorded as “no inhibition”.

Consider `CCOC(=O)Cn1sccc1=O` [ISFP23, ethyl 2-(3-oxoisothiazol-2(3H)-yl)acetate], for which the “IC50 AfPGM” value on AfPGM was “no inhibition”.

As to `CCOC(=O)CCn1sccc1=O` [ISFP24, ethyl 3-(3-oxoisothiazol-2(3H)-yl)propanoate], the “IC50 AfPGM” value against AfPGM is “no inhibition”.

Take `CCOCCn1sccc1=O` [ISFP25, 2-(2-ethoxyethyl)isothiazol-3(2H)-one]: at AfPGM, the “IC50 AfPGM” value is recorded as “no inhibition”.

On to `O=c1ccsn1Cc1ccccc1` [ISFP26, 2-benzylisothiazol-3(2H)-one], for which the “IC50 AfPGM” value on AfPGM is reported as “no inhibition”.

With `O=c1cc(-c2ccccc2)sn1-c1cccc(Cl)c1` [ISFP27, 2-(3-chlorophenyl)-5-phenylisothiazol-3(2H)-one], the “IC50 AfPGM” value at AfPGM is reported as “no inhibition”.

`Cc1csn(-c2cccc(Cl)c2)c1=O` [ISFP28, 2-(3-chlorophenyl)-4-methylisothiazol-3(2H)-one]: on AfPGM, the “IC50 AfPGM” value was “no inhibition”.

Take `Cc1cc(=O)n(-c2cccc(Cl)c2)s1` [ISFP30, 2-(3-chlorophenyl)-5-methylisothiazol-3(2H)-one]: the “IC50 HsPGM” value against HsPGM (HsPGM 5 nM, no preincubation, > values: highest concentration at which the compound can solubilize) is recorded as “no inhibition”. The “IC50 AfPGMC353” value on AfPGMC353∗ (AfPGMC353∗ (all other cysteines mutated to serine) 5 nM) is recorded as “no inhibition”. The IC50 against AfPGM came to 5.2 µM.

By IC50 is commonly meant the midpoint of a concentration-inhibition curve.
